# Assay results as given in PubChem BioAssay AID220 (DTP/NCI, 2004).
# Where “and” joins values, the source holds several entries; their conditions need not be identical. Identical values can stand only once. Inconclusive results are not listed.
# System: CD8F1 mice, subcutaneous mammary adenocarcinoma, T/C%
# Assay: NCI In Vivo Anticancer Drug Screen. Data for tumor model Mammary Adenocarcinoma CD8F1 (subcutaneous) in CD8F1
# Conditions: higher = larger tumour
# In short: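 Ratio of treated to vehicle-control outcome, based on either survival or tumor size, in mice bearing transplantable tumors given the test compound.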
# [1] = endpoint: median tumor weight (est.), dose: 12.5 mg/kg/injection, schedule: Q07DX005 (ip), vehicle: saline
# [2] = endpoint: median tumor weight change, dose: 250.0 mg/kg/injection, schedule: Q01DX001 (ip), vehicle: saline with Tween-80
# [3] = endpoint: median tumor weight change, dose: 500.0 mg/kg/injection, schedule: Q01DX001 (ip), vehicle: saline with Tween-80
# [4] = endpoint: median tumor weight change, dose: 1000.0 mg/kg/injection, schedule: Q01DX001 (ip), vehicle: saline with Tween-80
# [5] = endpoint: median tumor weight (est.), dose: 2.5 mg/kg/injection, schedule: Q07DX005 (ip), vehicle: saline
# [6] = endpoint: median tumor weight (est.), dose: 5.0 mg/kg/injection, schedule: Q07DX005 (ip), vehicle: saline
# [7] = endpoint: median tumor weight (est.), dose: 10.0 mg/kg/injection, schedule: Q07DX005 (ip), vehicle: saline
# [8] = endpoint: median tumor weight (est.), dose: 12.5 mg/kg/injection, schedule: Q07DX005 (ip), vehicle: saline with Tween-80
# [9] = endpoint: median tumor weight (est.), dose: 25.0 mg/kg/injection, schedule: Q07DX005 (ip), vehicle: saline with Tween-80
# [10] = endpoint: median tumor weight (est.), dose: 100.0 mg/kg/injection, schedule: Q07DX005 (ip), vehicle: saline with Tween-80
# [11] = endpoint: median tumor weight (est.), dose: 200.0 mg/kg/injection, schedule: Q07DX005 (ip), vehicle: saline with Tween-80
# [12] = endpoint: median tumor weight (est.), dose: 400.0 mg/kg/injection, schedule: Q07DX005 (ip), vehicle: saline with Tween-80
# [13] = endpoint: median tumor weight (est.), dose: 50.0 mg/kg/injection, schedule: Q07DX005 (ip), vehicle: saline with Tween-80
compound,measurement,setting,value
OCC1OC(n2cnc3cncnc32)C(O)C1O (configuration not stated),T/C,"endpoint: median tumor weight (est.), dose: 3.12 mg/kg/injection, schedule: Q07DX005 (ip), vehicle: saline",114 % of control
same,T/C,"endpoint: median tumor weight (est.), dose: 6.25 mg/kg/injection, schedule: Q07DX005 (ip), vehicle: saline",59 % of control
same,T/C,[1],65 % of control
CN1N=C(N)c2cn(C3OC(COP(=O)(O)O)C(O)C3O)c3ncnc1c23 (configuration not stated),T/C,"endpoint: median tumor weight (est.), dose: 9.37 mg/kg/injection, schedule: Q07DX005 (ip), vehicle: other",46 % of control
same,T/C,"endpoint: median tumor weight (est.), dose: 12.5 mg/kg/injection, schedule: Q07DX005 (ip), vehicle: water",121 % of control
same,T/C,"endpoint: median tumor weight (est.), dose: 18.75 mg/kg/injection, schedule: Q07DX005 (ip), vehicle: other",52 % of control
same,T/C,"endpoint: median tumor weight (est.), dose: 25.0 mg/kg/injection, schedule: Q07DX005 (ip), vehicle: water",54 % of control
same,T/C,"endpoint: median tumor weight (est.), dose: 37.5 mg/kg/injection, schedule: Q07DX005 (ip), vehicle: other",25 % of control
same,T/C,"endpoint: median tumor weight (est.), dose: 50.0 mg/kg/injection, schedule: Q07DX005 (ip), vehicle: water",25 % of control
same,T/C,"endpoint: median tumor weight (est.), dose: 75.0 mg/kg/injection, schedule: Q07DX005 (ip), vehicle: other",16 % of control
same,T/C,"endpoint: median tumor weight (est.), dose: 100.0 mg/kg/injection, schedule: Q07DX005 (ip), vehicle: water",7 % of control
same,T/C,"endpoint: median tumor weight (est.), dose: 150.0 mg/kg/injection, schedule: Q07DX005 (ip), vehicle: other",5 % of control
CCc1ccccc1N1CCN(C(=O)c2cc(OC)c(OC)c(OC)c2)CC1,T/C,"endpoint: median tumor weight (est.), dose: 12.5 mg/kg/injection, schedule: Q07DX003 (ip), vehicle: Klucel (hydroxypropylcellulose) (HPC)",68 % of control
same,T/C,"endpoint: median tumor weight (est.), dose: 12.5 mg/kg/injection, schedule: Q07DX004 (ip), vehicle: Klucel (hydroxypropylcellulose) (HPC)",50 % of control
same,T/C,"endpoint: median tumor weight (est.), dose: 50.0 mg/kg/injection, schedule: Q04DX005 (ip), vehicle: Klucel (hydroxypropylcellulose) (HPC)",167 % of control and 269 % of control
same,T/C,"endpoint: median tumor weight (est.), dose: 50.0 mg/kg/injection, schedule: Q07DX003 (ip), vehicle: Klucel (hydroxypropylcellulose) (HPC)",182 % of control
same,T/C,"endpoint: median tumor weight (est.), dose: 100.0 mg/kg/injection, schedule: Q04DX005 (ip), vehicle: Klucel (hydroxypropylcellulose) (HPC)",152 % of control and 206 % of control
same,T/C,"endpoint: median tumor weight (est.), dose: 100.0 mg/kg/injection, schedule: Q07DX003 (ip), vehicle: Klucel (hydroxypropylcellulose) (HPC)",112 % of control
same,T/C,"endpoint: median tumor weight (est.), dose: 100.0 mg/kg/injection, schedule: Q07DX004 (ip), vehicle: Klucel (hydroxypropylcellulose) (HPC)",274 % of control
same,T/C,"endpoint: median tumor weight (est.), dose: 200.0 mg/kg/injection, schedule: Q07DX003 (ip), vehicle: Klucel (hydroxypropylcellulose) (HPC)",111 % of control
same,T/C,"endpoint: median tumor weight (est.), dose: 400.0 mg/kg/injection, schedule: Q04DX005 (ip), vehicle: Klucel (hydroxypropylcellulose) (HPC)",44 % of control
same,T/C,"endpoint: median tumor weight (est.), dose: 400.0 mg/kg/injection, schedule: Q07DX003 (ip), vehicle: Klucel (hydroxypropylcellulose) (HPC)",36 % of control
COc1cc2c(c(OC)c1OC)-c1ccc(OC)c(=O)cc1[C@@H](NC(=O)CCl)CC2,T/C,"endpoint: median tumor weight change, dose: 5.0 mg/kg/injection, schedule: Q01DX001 (ip), vehicle: saline with Tween-80",76 % of control
c1cc2n(n1)CCN2,T/C,[1],76 % of control
same,T/C,"endpoint: median tumor weight (est.), dose: 25.0 mg/kg/injection, schedule: Q07DX005 (ip), vehicle: saline",94 % of control
same,T/C,"endpoint: median tumor weight (est.), dose: 50.0 mg/kg/injection, schedule: Q07DX005 (ip), vehicle: saline",102 % of control
same,T/C,"endpoint: median tumor weight (est.), dose: 100.0 mg/kg/injection, schedule: Q07DX005 (ip), vehicle: saline",85 % of control
same,T/C,"endpoint: median tumor weight (est.), dose: 200.0 mg/kg/injection, schedule: Q07DX005 (ip), vehicle: saline",54 % of control
same,T/C,"endpoint: median tumor weight (est.), dose: 400.0 mg/kg/injection, schedule: Q07DX005 (ip), vehicle: saline",46 % of control
N=c1c(C(=O)OCc2ccccc2)ncc(CCl)n1O,T/C,[2],78 % of control and 94 % of control
same,T/C,[3],80 % of control and 82 % of control
same,T/C,[4],65 % of control and 81 % of control
CC(C)CC(NC(=O)CF)C(=O)O (configuration not stated),T/C,"endpoint: median tumor weight (est.), dose: 0.62 mg/kg/injection, schedule: Q07DX005 (ip), vehicle: saline",81 % of control
same,T/C,[5],39 % of control
same,T/C,[6],99 % of control
same,T/C,[7],41 % of control
BrC1CC(Br)c2c1c1c(c3c2C(Br)CC3Br)C(Br)CC1Br (configuration not stated),T/C,[8],87 % of control
same,T/C,[9],210 % of control and 98 % of control
same,T/C,[10],86 % of control
same,T/C,[11],71 % of control and 75 % of control
same,T/C,[12],40 % of control
same,T/C,[2],85 % of control
same,T/C,[3],88 % of control
same,T/C,[4],59 % of control
same,T/C,"endpoint: median tumor weight change, dose: 2000.0 mg/kg/injection, schedule: Q01DX001 (ip), vehicle: saline with Tween-80",51 % of control
O=S1(=O)C=C(c2ccccc2)C(c2ccccc2)=C1,T/C,"endpoint: median tumor weight (est.), dose: 6.25 mg/kg/injection, schedule: Q07DX005 (ip), vehicle: saline with Tween-80",80 % of control
same,T/C,[9],72 % of control
same,T/C,[13],108 % of control
CCN1/C(=C/C=C/C=C\C=C\c2sc3ccc4ccccc4c3[n+]2CC)Sc2ccc3ccccc3c21,T/C,"endpoint: median tumor weight change, dose: 25.0 mg/kg/injection, schedule: Q01DX001 (ip), vehicle: saline with Tween-80",70 % of control and 76 % of control
same,T/C,"endpoint: median tumor weight change, dose: 100.0 mg/kg/injection, schedule: Q01DX001 (ip), vehicle: saline with Tween-80",32 % of control and 53 % of control
same,T/C,"endpoint: median tumor weight change, dose: 200.0 mg/kg/injection, schedule: Q01DX001 (ip), vehicle: saline with Tween-80",69 % of control
O=c1c(O)c(-c2ccc(O)c(O)c2)oc2cc(O)cc(O)c12,T/C,"endpoint: median tumor weight (est.), dose: 25.0 mg/kg/injection, schedule: Q07DX005 (ip), vehicle: other",52 % of control
same,T/C,"endpoint: median tumor weight (est.), dose: 50.0 mg/kg/injection, schedule: Q07DX005 (ip), vehicle: other",114 % of control
same,T/C,"endpoint: median tumor weight (est.), dose: 100.0 mg/kg/injection, schedule: Q07DX005 (ip), vehicle: other",98 % of control
same,T/C,"endpoint: median tumor weight (est.), dose: 400.0 mg/kg/injection, schedule: Q07DX005 (ip), vehicle: other",49 % of control
NC(=O)c1ncn2c(=O)n(CCCl)nnc12,T/C,"endpoint: median tumor weight change, dose: 6.25 mg/kg/injection, schedule: Q01DX001 (ip), vehicle: suspension in saline",69 % of control
same,T/C,"endpoint: median tumor weight change, dose: 12.5 mg/kg/injection, schedule: Q01DX001 (ip), vehicle: suspension in saline",76 % of control
same,T/C,"endpoint: median tumor weight change, dose: 25.0 mg/kg/injection, schedule: Q01DX001 (ip), vehicle: suspension in saline",45 % of control
same,T/C,"endpoint: median tumor weight change, dose: 50.0 mg/kg/injection, schedule: Q01DX001 (ip), vehicle: suspension in saline",41 % of control and 46 % of control
COC1=C(OC)C(=O)C(C/C=C(\C)CC/C=C(\C)CC/C=C(\C)CC/C=C(\C)CC/C=C(\C)CC/C=C(\C)CC/C=C(\C)CC/C=C(\C)CC/C=C(\C)CCC=C(C)C)=C(C)C1=O,T/C,[8],59 % of control
same,T/C,[9],67 % of control
same,T/C,[13],47 % of control
same,T/C,[10],93 % of control
same,T/C,[11],122 % of control
same,T/C,[12],76 % of control
O=C1NC(=O)NC(C(=O)O)N1,T/C,"endpoint: median tumor weight change, dose: 12.0 mg/kg/injection, schedule: Q01DX001 (ip), vehicle: DMSO",79 % of control
same,T/C,"endpoint: median tumor weight change, dose: 25.0 mg/kg/injection, schedule: Q01DX001 (ip), vehicle: DMSO",104 % of control
same,T/C,"endpoint: median tumor weight change, dose: 50.0 mg/kg/injection, schedule: Q01DX001 (ip), vehicle: DMSO",79 % of control
same,T/C,"endpoint: median tumor weight change, dose: 75.0 mg/kg/injection, schedule: Q01DX001 (ip), vehicle: DMSO",83 % of control
same,T/C,"endpoint: median tumor weight change, dose: 100.0 mg/kg/injection, schedule: Q01DX001 (ip), vehicle: DMSO",73 % of control
same,T/C,"endpoint: median tumor weight change, dose: 150.0 mg/kg/injection, schedule: Q01DX001 (ip), vehicle: DMSO",96 % of control
same,T/C,"endpoint: median tumor weight change, dose: 200.0 mg/kg/injection, schedule: Q01DX001 (ip), vehicle: DMSO",83 % of control
same,T/C,"endpoint: median tumor weight change, dose: 300.0 mg/kg/injection, schedule: Q01DX001 (ip), vehicle: DMSO",86 % of control
same,T/C,"endpoint: median tumor weight change, dose: 400.0 mg/kg/injection, schedule: Q01DX001 (ip), vehicle: DMSO",56 % of control
same,T/C,"endpoint: median tumor weight change, dose: 600.0 mg/kg/injection, schedule: Q01DX001 (ip), vehicle: DMSO",80 % of control
CN1CCN(c2ccc([N+](=O)[O-])c3no[n+]([O-])c23)CC1,T/C,"endpoint: median tumor weight (est.), dose: 5.0 mg/kg/injection, schedule: Q07DX005 (ip), vehicle: saline with Tween-80",95 % of control
same,T/C,"endpoint: median tumor weight (est.), dose: 10.0 mg/kg/injection, schedule: Q07DX005 (ip), vehicle: saline with Tween-80",115 % of control
same,T/C,"endpoint: median tumor weight (est.), dose: 20.0 mg/kg/injection, schedule: Q07DX005 (ip), vehicle: saline with Tween-80",75 % of control
CC1(C)OCC(CO)(Nc2nc(N3CC3)nc(N3CC3)n2)CO1,T/C,"endpoint: median tumor weight (est.), dose: 1.25 mg/kg/injection, schedule: Q07DX005 (ip), vehicle: saline",41 % of control
same,T/C,[5],36 % of control
same,T/C,[6],18 % of control
same,T/C,[7],6 % of control
